Laboratory results published in ChEMBL document CHEMBL1144091, “Isolation of two highly methylated polyketide derivatives from a yew-associated penicillium species” (J Nat Prod, 1999).
The source made the active and inactive calls. No cut-off for these calls is given here.

Columns and labels:
Candida albicans = test: Antifungal activity against Candida albicans at 500 ug/disk; format: functional, organism-based
Helminthosporium = test: Antifungal activity against Helminthosporium sativum at 500 ug/disk; format: functional, organism-based
Aspergillus flavus = test: Antifungal activity against Aspergillus flavus at 500 ug/disk; format: functional, organism-based
Sclerotinia sclerotiorum [1] = test: Antifungal activity against Sclerotinia sclerotiorum at 0.00011 uM/disk after 96 hrs; format: functional; details: read-out: IZ
Geotrichum candidum = test: Antifungal activity against Geotrichum candidum at 500 ug/disk; format: functional, organism-based
Aspergillus niger = test: Antifungal activity against Aspergillus niger at 500 ug/disk; format: functional, organism-based
Artemia = test: Toxicity against brine shrimp at 500 ug/mL; format: organism-based; details: in vivo
Fusarium oxysporum = test: Antifungal activity against Fusarium oxysporum at 500 ug/disk; format: functional, organism-based
Sclerotinia sclerotiorum [2] = test: Antifungal activity against Sclerotinia sclerotiorum at 0.00034 uM/disk after 96 hrs; format: functional; details: read-out: IZ

SMILES | Activity (Candida albicans) | Activity (Helminthosporium) | Activity (Aspergillus flavus) | zone of inhibition at 0.00011 µM (Sclerotinia sclerotiorum [1]) | Activity (Geotrichum candidum) | Activity (Aspergillus niger) | Activity (Artemia) | Activity (Fusarium oxysporum) | zone of inhibition at 0.00034 µM (Sclerotinia sclerotiorum [2])
CC1=C[C@H]2C[C@H](C)[C@@H](O)[C@H](C)[C@H]2[C@H](/C=C(C)/C=C(C)/C=C/C(=O)O)/C1=C\C(=O)CO | inactive | inactive | inactive | 17 mm | inactive | inactive | Non-toxic | inactive | 
CC1=C[C@H]2C[C@H](C)[C@@H](O)[C@H](C)[C@H]2[C@H](/C=C(C)/C=C(C)\C=C\C(=O)O)/C1=C\C(=O)CO | inactive | inactive | inactive |  | inactive | inactive | Non-toxic | inactive | 16 mm
